Experimental data as given in patent publication US20240199623A1 (ILDONG PHARMACEUTICAL CO., LTD., priority 2020, published 2024).

Target: human wild type-CFTR (Homo sapiens, UniProt P13569)
Assay: Cell-based YFP assay
Set-up: expressed in transfected cells; host or cells: CHO-K1 (Chinese hamster ovary)
Settings: CHO-K1 cells expressing human wild type-CFTR and YFP-H148Q/I152L; forskolin 20 μM = 100% activity; read-out: Cell-based YFP Assay (EC50) Concentration Range
How it was run: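 I⁻-driven YFP fluorescence quenching at 37 °C: 2 s baseline, addition of 140 mM iodide solution, then 14 s of readings at 0.4 s intervals. Cells were CHO-K1 expressing human wild-type CFTR plus YFP-H148Q/I152L. EC50 derived from averaged triplicates.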

human wild type-CFTR, sequence (P13569 whole entry): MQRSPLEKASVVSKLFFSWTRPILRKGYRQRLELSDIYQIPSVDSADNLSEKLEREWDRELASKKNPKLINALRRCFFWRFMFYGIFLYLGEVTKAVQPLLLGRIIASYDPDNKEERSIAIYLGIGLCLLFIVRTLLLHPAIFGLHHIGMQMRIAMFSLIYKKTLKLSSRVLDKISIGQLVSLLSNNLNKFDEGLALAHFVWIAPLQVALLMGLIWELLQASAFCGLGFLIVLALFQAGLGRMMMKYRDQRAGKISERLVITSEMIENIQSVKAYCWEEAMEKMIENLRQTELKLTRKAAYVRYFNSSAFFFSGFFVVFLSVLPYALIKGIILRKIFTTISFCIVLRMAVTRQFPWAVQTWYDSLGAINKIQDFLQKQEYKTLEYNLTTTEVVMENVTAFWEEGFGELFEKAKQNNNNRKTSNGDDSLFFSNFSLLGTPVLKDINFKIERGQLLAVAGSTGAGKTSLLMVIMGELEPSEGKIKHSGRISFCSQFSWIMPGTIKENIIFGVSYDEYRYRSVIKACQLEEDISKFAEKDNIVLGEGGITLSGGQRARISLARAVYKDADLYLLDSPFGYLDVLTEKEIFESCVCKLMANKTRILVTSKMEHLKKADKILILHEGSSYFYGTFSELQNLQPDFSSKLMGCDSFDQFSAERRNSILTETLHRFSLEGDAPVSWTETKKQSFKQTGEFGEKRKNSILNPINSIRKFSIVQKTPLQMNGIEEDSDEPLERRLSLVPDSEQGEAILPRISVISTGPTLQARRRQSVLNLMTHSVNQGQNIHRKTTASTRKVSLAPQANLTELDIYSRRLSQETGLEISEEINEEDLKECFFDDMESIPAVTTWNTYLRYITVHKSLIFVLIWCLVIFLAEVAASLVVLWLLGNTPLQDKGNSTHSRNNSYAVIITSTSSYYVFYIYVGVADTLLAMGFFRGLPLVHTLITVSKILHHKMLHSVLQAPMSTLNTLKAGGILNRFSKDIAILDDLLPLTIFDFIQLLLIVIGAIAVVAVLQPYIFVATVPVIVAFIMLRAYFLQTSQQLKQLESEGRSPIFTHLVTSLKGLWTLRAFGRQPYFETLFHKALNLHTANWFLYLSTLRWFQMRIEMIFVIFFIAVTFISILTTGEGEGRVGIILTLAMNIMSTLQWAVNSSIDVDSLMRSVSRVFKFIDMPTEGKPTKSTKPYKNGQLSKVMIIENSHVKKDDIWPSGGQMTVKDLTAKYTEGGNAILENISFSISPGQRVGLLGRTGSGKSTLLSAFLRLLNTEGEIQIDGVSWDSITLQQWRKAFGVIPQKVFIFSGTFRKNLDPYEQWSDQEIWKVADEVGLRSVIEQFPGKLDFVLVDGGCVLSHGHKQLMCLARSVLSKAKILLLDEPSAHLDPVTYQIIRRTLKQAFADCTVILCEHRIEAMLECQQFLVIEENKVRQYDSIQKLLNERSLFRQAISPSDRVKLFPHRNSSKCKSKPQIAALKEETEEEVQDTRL

| EC50 | Compound |
| --- | --- |
| ≥ 2000 nM | COc1ccc(-c2ccnc3cc(C(=O)NC4CCN(C(=O)COC(C)=O)CC4)nn23)cc1OC [Compound 84, 2-(4-(7-(3,4-dimethoxyphenyl)pyrazolo[1,5-a]pyrimidine-2-carboxamido)piperidin-1-yl)-2-oxoethyl acetate] |
| < 200 nM | COc1ccc(-c2ccnc3cc(C(=O)N4CCN(C(=O)OC(C)(C)C)[C@@H](C)C4)nn23)cc1OC [Compound 112, tert-butyl (S)-4-(7-(3,4-dimethoxyphenyl)pyrazolo[1,5-a]pyrimidine-2-carbonyl)-2-methylpiperazine-1-carboxylate] |
| < 200 nM | COc1ccc(-c2ccnc3cc(C(=O)N4CCN(C(=O)c5ccccc5F)[C@@H](C)C4)nn23)cc1OC [Compound 368, (S)-(7-(3,4-dimethoxyphenyl)pyrazolo[1,5-a]pyrimidin-2-yl)(4-(2-fluorobenzoyl)-3-methylpiperazin-1-yl)methanone] |
| ≥ 2000 nM | CCN(CC)CCCNC(=O)c1ccc(NC(=O)c2cc3nccc(-c4ccc(OC)c(OC)c4)n3n2)cc1 [Compound 222, N-(4-((3-(diethylamino)propyl)carbamoyl)phenyl)-7-(3,4-dimethoxyphenyl) pyrazolo[1,5-a]pyrimidine-2-carboxamide] |
| < 200 nM | COc1ccc(-c2ccnc3cc(C(=O)N4CCN(C(=O)c5cccc(C)c5)[C@@H](C)C4)nn23)cc1OC [Compound 369, (S)-(7-(3,4-dimethoxyphenyl)pyrazolo[1,5-a]pyrimidin-2-yl)(3-methyl-4-(3-methylbenzoyl)piperazin-1-yl)methanone] |
| < 200 nM | COCCOCOC(=O)c1ccc(NC(=O)c2cc3nccc(-c4ccc(OC)c(OC)c4)n3n2)cc1 [Compound 329, (2-methoxyethoxy)methyl 4-(7-(3,4-dimethoxyphenyl)pyrazolo [1,5-a]pyrimidine-2-carboxamido)benzoate] |
| < 200 nM | COc1ccc(-c2ccnc3cc(C(=O)Nc4ccc(OC(=O)[C@@H](NC(=O)OCc5ccccc5)C(C)C)cc4)nn23)cc1OC [Compound 171, 4-(7-(3,4-dimethoxyphenyl)pyrazolo[1,5-a]pyrimidine-2-carboxamido)phenyl ((benzyloxy)carbonyl)-L-valinate] |
| 200 to 2000 nM | COc1ccc(-c2ccnc3cc(C(=O)N4CCN(C(=O)c5ccncc5)[C@@H](C)C4)nn23)cc1OC [Compound 357, (S)-(7-(3,4-dimethoxyphenyl)pyrazolo[1,5-a]pyrimidin-2-yl)(4-isonicotinoyl-3-methylpiperazin-1-yl)methanone] |
| ≥ 2000 nM | COC(=O)c1ccc(NC(=O)c2cc3nccc(-c4ccc(OC)cc4)n3n2)cc1 [Compound 23, methyl 4-(7-(4-methoxyphenyl)pyrazolo[1,5-a]pyrimidine-2-carboxamido)benzoate] |
| < 200 nM | COc1ccc(-c2ccnc3cc(C(=O)N4CCN(C(=O)c5ccccc5)CC4)nn23)cc1OC [Compound 209, (4-benzoylpiperazin-1-yl)(7-(3,4-dimethoxyphenyl)pyrazolo [1,5-a]pyrimidin-2-yl)methanone] |
| < 200 nM | CCOc1ccc(NC(=O)c2cc3nccc(-c4ccc(OC)c(OC)c4)n3n2)nc1 [Compound 314, 7-(3,4-dimethoxyphenyl)-N-(5-ethoxypyridin-2-yl)pyrazolo[1,5-a] pyrimidine-2-carboxamide] |
| < 200 nM | COc1ccc(-c2ccnc3cc(C(=O)Nc4ccc(N5CCCCC5)cc4)nn23)cc1OC [Compound 269, 7-(3,4-dimethoxyphenyl)-N-(4-(piperidin-1-yl)phenyl)pyrazolo [1,5-a]pyrimidine-2-carboxamide] |

| Compound | EC50 |
| --- | --- |
| COc1ccc(-c2ccnc3cc(C(=O)Nc4ccc(OC(=O)[C@H](C)NC(=O)OC(C)(C)C)cc4)nn23)cc1OC [Compound 228, 4-(7-(3,4-dimethoxyphenyl)pyrazolo[1,5-a]pyrimidine-2-carboxamido) phenyl(tert-butoxycarbonyl)-L-alaninate] | < 200 nM |
